According to the supplement of paper PMC8967900:

Legend:
Experiment in all cases: selective drug sensitivity score (sDSS, relative to normal bone marrow) (sDSS (score)); higher = more potent and effective on the cell line relative to normal bone marrow cells
Conditions in all cases: 72 h
380 = system: 380
P30-OHKUBO = system: P30-OHKUBO
HPB-ALL = system: HPB-ALL
NALL-1 = system: NALL-1
JURKAT = system: JURKAT
KASUMI-10 = system: KASUMI-10
RPMI-8402 = system: RPMI-8402
MN-60 = system: MN-60
697 = system: 697
KARPAS-45 = system: KARPAS-45
RCH-ACV = system: RCH-ACV
CCRF-HSB2 = system: CCRF-HSB2
LC4-1 = system: LC4-1
KOPN-8 = system: KOPN-8
MHH-CALL-2 = system: MHH-CALL-2
MHH-CALL-3 = system: MHH-CALL-3
MOLT-16 = system: MOLT-16
SEM cells = system: SEM cells
COG-LL-355h = system: COG-LL-355h
COG-LL-394h = system: COG-LL-394h
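Further: ALL cell lines in 384-well plates, five doses spanning 10,000-fold, each plate scaled between vehicle and 100 µmol/L benzalkonium chloride controls, sDSS an adapted area-under-curve metric.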

Compound | selective drug sensitivity score 380 | selective drug sensitivity score (P30-OHKUBO) | selective drug sensitivity score (HPB-ALL) | selective drug sensitivity score (NALL-1) | selective drug sensitivity score (JURKAT) | selective drug sensitivity score (KASUMI-10) | selective drug sensitivity score (RPMI-8402) | selective drug sensitivity score (MN-60) | selective drug sensitivity score 697 | selective drug sensitivity score (KARPAS-45) | selective drug sensitivity score (RCH-ACV) | selective drug sensitivity score (CCRF-HSB2) | selective drug sensitivity score (LC4-1) | selective drug sensitivity score (KOPN-8) | selective drug sensitivity score (MHH-CALL-2) | selective drug sensitivity score (MHH-CALL-3) | selective drug sensitivity score (MOLT-16) | selective drug sensitivity score (SEM cells) | selective drug sensitivity score (COG-LL-355h) | selective drug sensitivity score (COG-LL-394h)
Cc1ccc(C(=O)N(CCCN)[C@@H](c2oc3cc(Cl)ccc3c(=O)c2Cc2ccccc2)C(C)C)cc1 (top concentration 100 nM) | 1.46 | 4.06 | 13.8 | 6.06 | 2.96 | 1.96 | 2.86 | -1.84 | 1.36 | 7.16 | 1.96 | 9.56 | 2.86 | 3.46 | 9.46 | -2.44 | 7.46 | 5.66 | -2.64 | -2.24
C[C@@H](Oc1ccc2[nH]nc(/C=C/c3cnn(CCO)c3)c2c1)c1c(Cl)cncc1Cl (top concentration 1000 nM) | -1.34 | 6.06 | 1.46 | -1.74 | -4.84 | 5.46 | -3.14 | -7.04 | 1.96 | 0.56 | 10.6 | 3.86 | 1.36 | -2.44 | -0.74 | -7.04 | -2.04 | 6.26 | 0.36 | -0.54
CCn1c(C(=O)N(C2CC2)C2CC2)cc2c3c(ncn3C)c(Nc3cc(C)n(C)n3)nc21 (top concentration 10000 nM) | -4.36 | -3.66 | -3.16 | 0.44 | -4.36 | -0.66 | -4.16 | -4.36 | -3.76 | -3.06 | -3.06 | 5.14 | -4.36 | -4.36 | 3.44 | -4.36 | -4.36 | 0.94 | 1.14 | -4.36
CNc1nc(-c2ccc3c(N)n[nH]c3c2)cc(N2C[C@@H](C(=O)NC3CCCCC3)CC[C@H]2C)n1 (top concentration 10000 nM) | -0.14 | 7.86 | 1.86 | -0.14 | -0.14 | 0.46 | -0.14 | 2.96 | 9.06 | -0.14 | 18.6 | -0.14 | 0.76 | 7.26 | 6.16 | -0.14 | -0.14 | 3.26 | 6.66 | -0.14
COc1ccc(Cn2ccc3ccc(C(=O)NO)cc32)cc1 (top concentration 10000 nM) | 10.2 | 2.24 | 0.84 | -0.86 | 2.84 | 3.14 | 1.54 | 3.44 | 4.34 | 2.94 | 1.54 | 6.64 | 4.54 | 8.74 | 6.24 | 1.74 | 4.04 | 2.94 | 0.74 | 0.94
N#Cc1ccc(COC[C@H]2O[C@@H](n3c(NCc4ccc(Cl)c(Cl)c4)nc4c(N)ncnc43)[C@H](O)[C@@H]2O)cc1 (top concentration 10000 nM) | -0.98 | 1.62 | 4.32 | -0.48 | 4.72 | -0.68 | 7.92 | 2.12 | 4.72 | 7.82 | 8.62 | 9.92 | 0.32 | 2.02 | 0.52 | 0.32 | 9.72 | 5.22 | 2.22 | -0.08
NC[C@@](O)(c1ccc(Cl)cc1)c1ccc(-c2cn[nH]c2)cc1 (top concentration 10000 nM) | 13.9 | 3.68 | -0.72 | -1.22 | 2.58 | -1.22 | 3.28 | 0.58 | 9.78 | 2.78 | 7.58 | 5.28 | 1.28 | 3.38 | 2.58 | 5.78 | 0.38 | 6.58 | 3.28 | -1.22
O=c1[nH]c(C2CCCN2)nc2c1oc1ccc(Cl)cc12 (stereo not given) (top concentration 10000 nM) | 13.1 | 1.2 | -2.4 | 0.8 | -2.8 | -2.7 | 6.2 | -2.7 | 6.2 | 0.9 | 5.1 | 3.7 | 1.8 | 8.1 | 1 | -0.7 | -0.5 | -1.6 | 2.1 | 0.5
NCC(=O)Nc1ccc(-n2nc(C(F)(F)F)cc2-c2ccc3c(ccc4ccccc43)c2)cc1 (top concentration 25000 nM) | 9.6 | 7.6 | 7.6 | 5 | 15.3 | 0 | 13 | 18.9 | 10.8 | 6.9 | 17.3 | 16.4 | 2.7 | 7.4 | 7.1 | -0.2 | 19 | 8 | -0.2 | -0.2
Nc1ncnc2c1nc(Cl)n2[C@@H]1O[C@H](CO)[C@@H](O)[C@H]1O [8-chloro-adenosine] (top concentration 50000 nM) | -6.3 | 2.8 | -4.8 | -5.3 | 0.3 | 7.5 | -0.9 | -2.8 | 4.1 | 1.8 | 1.4 | 3.6 | 2.9 | 5.9 | 2.4 | -1.6 | 7.1 | 7.1 | -3.6 | 5.1
COc1ccc(S(=O)(=O)Nc2cccnc2Nc2ccc(O)cc2)cc1 [ABT-751] (top concentration 10000 nM) | 8.72 | 11.6 | 13.2 | 10.8 | 15.6 | 8.12 | 11.9 | 5.42 | 12.8 | 12.2 | 11.7 | 13 | 11.7 | 14.6 | 12.6 | 3.72 | 12.6 | 14.7 | 1.02 | 3.72
CC1CCC(n2c3cnccc3c3cnc(Nc4ccc5c(n4)CCN(C(=O)CO)C5)nc32)CC1 (stereo not given) [AMG-925] (top concentration 1000 nM) | 2.44 | 8.14 | 5.84 | -0.16 | 4.54 | 9.54 | 5.74 | -0.66 | 11.4 | 1.84 | 14.7 | 1.94 | 9.24 | 10.9 | 4.94 | 4.94 | 10.5 | 10 | 2.34 | -0.66
O=C(NC1CCNCC1)c1n[nH]cc1NC(=O)c1c(Cl)cccc1Cl [AT7519] (top concentration 10000 nM) | -4.86 | -2.96 | -10.8 | -8.16 | -10.7 | -2.76 | -7.46 | -11.4 | -2.46 | -4.16 | -3.16 | -3.46 | -4.26 | -5.06 | -2.06 | -4.56 | -3.06 | -4.76 | 2.74 | -1.06
Cc1cc2c(C(C)C)c(O)c(O)c(C=O)c2c(O)c1-c1c(C)cc2c(C(C)C)c(O)c(O)c(C=O)c2c1O [AT-101] (top concentration 100000 nM) | -0.22 | 5.18 | 10.9 | 4.58 | 4.28 | 2.48 | 1.88 | 3.28 | 3.08 | 5.98 | 0.98 | 2.48 | 9.28 | 14.6 | 4.18 | -0.92 | 5.88 | 3.78 | 4.98 | 3.78
N[C@@H]1CCCN(c2c(/C=C3\SC(=O)NC3=O)cccc2-c2ccccc2)C1 [AZD1208] (top concentration 10000 nM) | 14.8 | -1.1 | -4.4 | 2.4 | -4.2 | -4.4 | -3.1 | -1.8 | 1.2 | -3.3 | 0.6 | 6.5 | -3.8 | 7.4 | 3.7 | -4.4 | -4.4 | -4.4 | 12.4 | 1
Cc1ncc(-c2ccnc(Nc3ccc(S(C)(=O)=O)cc3)n2)n1C(C)C [AZD-5438] (top concentration 10000 nM) | -7.56 | 0.84 | -5.06 | -6.86 | -1.06 | 6.04 | -0.76 | -7.96 | 0.94 | 2.64 | 2.44 | 1.34 | 0.44 | 5.24 | -1.06 | 6.64 | 5.44 | 2.34 | 3.94 | -5.86
CCN1CCN(Cc2ccc(Nc3ncc(F)c(-c4cc(F)c5nc(C)n(C(C)C)c5c4)n3)nc2)CC1 [Abemaciclib] (top concentration 2500 nM) | -6.86 | 5.94 | -2.46 | -5.96 | -6.16 | -1.06 | 0.74 | -8.16 | 8.44 | -4.66 | 8.74 | -2.46 | 2.94 | 20.2 | -3.96 | 1.24 | 8.24 | -1.86 | 6.44 | -3.26
Cn1ncc(Cl)c1-c1cc(C(=O)N[C@H](CN)Cc2cccc(F)c2)sc1Cl [Afuresertib] (top concentration 1000 nM) | 2.46 | 5.56 | 2.86 | -2.34 | 3.86 | -2.34 | 1.16 | -0.54 | 0.76 | 3.06 | 5.36 | 0.86 | 0.86 | 6.06 | 7.36 | -1.94 | 10.4 | 0.36 | 2.76 | -0.94
O=C(Nc1cc(Oc2cc(F)c(NC(=O)C3(C(=O)Nc4ccc(F)cc4)CC3)cc2F)ccn1)C1CC1 [Altiratinib] (top concentration 10000 nM) | -0.86 | 1.84 | 3.54 | 4.14 | 0.84 | 8.84 | 1.64 | -4.86 | 4.24 | 2.74 | 7.24 | 8.14 | -0.36 | 3.74 | 3.74 | -4.86 | 0.04 | 13.7 | -0.36 | 1.84
